# Read-outs that look alike come from different tables or passages of the source.
# Experiments:
# Assay type in all cases: cell-based
# [1] = system: cynomolgus monkey ES cells; conditions: for induction of NR5A1-positive cells: addition in step 1 (BMS493 1 μM), FACS day 14; for concentration considered the best in step 2: conclusion at the time of experiment 21
# [2] = system: cynomolgus monkey ES cells
# Source text: In order to conveniently observe the expression of genes represented by each developmental stage, the stop codons of TBXT, OSR1, NR5A1, FOXL2, WT1, and GATA4 were deleted from the cynomolgus monkey female ES15XRi cell strain using a Cas9 nickase and gene targeting, 2A and EGFP (TBXT, NR5A1), tdTomato (OSR1, FOXL2, and WT1), and 2A and mTagBFP2 (GATA4) were inserted, and then a drug-resistant cassette sandwiched between loxP's was knocked in (FIGS. 24A to 24F; and in FIG. 24A to FIG. 24F, “PGK” represents a PGK promoter). Thereafter, the drug-resistant cassette was removed using Cre to manufacture the following five double reporter cell strains. • (1) TBXT-EGFP/OSR1-tdTomato (which may be hereinafter abbreviated as a “TGOT strain”); • (2) NR5A1-EGFP/FOXL2-tdTomato (which may be hereinafter abbreviated as a “NGFT strain”); • (3) a single reporter strain of NR5A1-EGFP (which may be hereinafter abbreviated as an “NG-Puro strain”. This strain has not been subjected to the removal of the drug-resistant cassette by Cre); • (4) a triple reporter strain of WT1-tdTomato/GATA4-mTagBFP2/NR5A1-EGFP (which may be hereinafter abbreviated to as a “WTGBNG strain”); and • (5) WT1-tdTomato/NR5A1-EGFP (which may be hereinafter abbreviated as a “WTNG strain”).
# (§1) The cells at each stage were analyzed using a flow cytometer (BD FACSAria III).
# At the time of induction, the ES cells were cultured on mouse embryonic fibroblasts (MEF), which are feeder cells, treated with a proteolytic enzyme solution (CTK: collagenase, trypsin, and KSR), and then dissociated up to a single-cell level using TrypLEselect. Next, each of 30,000 cells was seeded in a low-adhesive 96-well U-bottom culture plate (hereinafter, step 1 was started by the same method unless otherwise specified). A TGOT No. 25 strain was used as a cell strain. The presence or absence of the ROCK inhibitor (Y-27632) in step 1 was examined. In FIG. 25A, the base medium GK7.5 has a composition of GMEM, 7.5 v/v % KSR, 0.1 mM 2-ME, 0.1 mM non-essential amino acid (NEAA), 1 mM sodium pyruvate, 100 U/mL penicillin/streptomycin, and 2 mM L-glutamine. The induction was performed for a period in step 1 of 2 days and in step 2 of 2 days. In step 2, PD173074 was used instead of PD0325901 used in mice. PD173074 is an inhibitor of FGF, whereas PD0325901 is an MEK inhibitor downstream of the FGF signaling pathway.
# human iPS cells [3] = experiment: Induction of differentiation from human iPS cells into ovarian somatic cell-like cells (FACS of OSR1-tdTomato/NR5A1-EGFP reporters, observation of embryoid bodies)
# Source text: In order to conveniently observe the expression of genes typical at each developmental stage, a human iPS cell line 1390G3 was genetically modified, and a DNA sequence that emits red fluorescence (tdTomato) with the expression of the OSR1 gene, green fluorescence (EGFP) with the expression of the NR5A1 gene, and red fluorescence (tdTomato) with the expression of the FOXL2 gene was manufactured (see FIG. 1, and after introduction into the chromosome, a portion of “PGKp-Neo (or Puro)-pA” portion was deleted with Cre). An iPS cell line into which two DNA sequences of OSR1 and NR5A1 had been introduced (which may be hereinafter abbreviated as “OTNG”), and an iPS cell line into which two DNA sequences of NR5A1 and FOXL2 had been introduced (which may be hereinafter abbreviated as “NGFT”) were manufactured. In the present test, the OTNG strain was used in most of the experiments. Furthermore, NR5A1 and SF1 are the same gene.
# as §1
# The ES cells of monkeys and human iPS cells are considered to be similar to EpiLC in a slightly advanced state in terms of differentiation, as compared with mouse ES cells. Therefore, in the examination using monkey or human pluripotent stem cells in the present test, step 0 was omitted and the process was started from step 1. […] For this reason, Y27632 was added to step 1 to perform examination. In addition, a 96-well V-bottom plate was used as a culture plate and the cells were seeded so as to have 10,000 cells per well.
# In a test using human cells, the base medium was changed from GMEM (used in mice) to DMEM including 7.5 v/v % KnockOut (registered trademark) Serum Replacement (KSR). In addition, the base medium includes 0.1 mM 2-mercaptoethanol, 100 U/mL penicillin/streptomycin, and 2 mM GlutaMax (registered trademark), but the additives and concentrations thereof are fixed, and the description following “2.” is omitted. The periods of step 1 and step 2 were set to be the same as those in the mouse protocol, and culture was continued under the condition of step 3. The entire medium was basically changed every two or three days. At the time of subculturing iPS cells, 30,000 cells were seeded on a low-adhesive plate to start the culture as aggregates.
# [4] = system: cynomolgus monkey ES cells; experiment: Quantitative PCR of marker genes in cells induced from cynomolgus monkey ES cells; conditions: without BMP4 and with the addition of LDN in step 1
# Description: The relative expression level of each marker gene was confirmed using a PCR apparatus (BIO-RAD CFX384 Real-Time System) with the following primers and conditions. In the table, the primers of PAX3, OSR1, PAX2 #3, EMX2 #1, WT1 #2, and LHX9 #2 were used only in the experiment of FIG. 31C, and the primers of OSR1 #10, CXCL12×4, BMP2, and BMP4 were used only for the experiment in FIG. 57C. The GAPDH gene and the PPIA gene were measured as housekeeping genes, and relative values with the average of Ct values of the two genes as a control value are shown in the graph. Although not shown in the graph, ERCC-00096, ERCC-00009, ERCC-00022, and ERCC-00025 were used in combination as a control, except for the experiment of FIG. 31C.
# human iPS cells [5] = experiment: Quantitative PCR of marker genes in cells induced from human iPS cells; conditions: bFGF 5 ng/ml added in step 1; day 15 of induction
# Source text: The relative expression level of each marker gene was confirmed using a PCR apparatus (BIO-RAD CFX384 Real-Time System) with the following primers and conditions. In the tables, the PPIA gene and the RPLP0 gene were used as housekeeping genes. The difference in qPCR is a difference from the average value taken as “(PPIA+RPLP0)/2”. In addition, the ERCC gene was used as an absolute control between samples.
# [6] = concentration of LDN increased in step 1 (30, 100, 1,000 nM)
# [7] = added to each condition in step 3 (16 patterns), day 16
# [8] = one cytokine added with EGF in step 3, compared with no cytokine control (CK−), BMP4 1 ng/ml, SHH 30 ng/mL, PD0325901 1 μM, RA 3 μM, day 16
# [9] = one cytokine added with EGF in step 3, compared with no cytokine control (CK−), day 16
compound,measurement,setting,value
CC1(C)CC=C(C#Cc2ccccc2)c2cc(/C=C/c3ccc(C(=O)O)cc3)ccc21 [BMS493],OSR1 expression in step 2,"[1]; 1 μM in step 1, FACS days 2, 4, 6",enhancement
same,expression level of SF1-EGFP,[1]; BMS493 1 μM added in step 3,slightly increased
same,induction efficiency of SF1-positive cells,[1]; BMS493 1 μM added in step 3,poor
same,expression level of WT1,"[1]; BMS493 1 μM for 48 hours in step 3, WTGBNG No. 1 strain",slightly decreased
same,induction of NR5A1-positive cells,[1],no particular advantage
Cc1c[nH]c(-c2cnc(NCCNc3ccc(C#N)cn3)nc2-c2ccc(Cl)cc2Cl)n1 [CHIR99021],expression of OSR1,"[2]; CHIR 10 μM in step 1, regardless of the concentration of BMP4",confirmed
same,optimum concentration of CHIR for induction of the intermediate mesoderm,[2]; step 1,≥ 10 µM
same,concentration of CHIR99021 at which TBXT can be expressed with high efficiency,"[2]; step 1 of 2 days, FACS day 2, TGOT No. 25 strain",≥ 8 µM
same,NR5A1-positive cells,"[1]; CHIR 20 μM in step 1, culture until day 17, NGFT No. 69 strain",a number of NR5A1-positive cells were observed
same,concentration of CHIR99021 at which OSR1 can be expressed with high efficiency,"[1]; step 1, at a transition to step 2, FACS days 4 and 6",≥ 14 µM
same,proportion of NR5A1-positive cells,human iPS cells [3]; CHIR99021 15 μM as compared to 10 μM in step 1,excellent
c1ccc2c(-c3cnn4cc(-c5ccc(N6CCNCC6)cc5)cnc34)ccnc2c1 [LDN193189],induction of NR5A1-positive cells,[1],no particular advantage
same,improvement in the proportion of NR5A1-positive cells,"[1]; addition of LDN in step 1 (30, 100, 1,000 nM), days 14, 17, 21",almost no improvement
same,OSR1 expression at the end point of step 1 (day 2.2),[1]; [6],decreased
same,increase in OSR1 expression in step 2 (days 4 and 6),[1]; [6],became weaker
same,expression of FOXF1,[4],almost disappeared
O=C(NOC[C@H](O)CO)c1ccc(F)c(F)c1Nc1ccc(I)cc1F [PD0325901],optimum concentration of PD0325901 in step 2,"[1]; FACS day 16, NGFT No. 69 strain",1 µM
same,induction efficiency,"[1]; MEK downstream of FGF inhibited with PD0325901 1 μM in step 3, FACS day 16",higher
same,number of the induced cells,"[1]; PD03 added in step 3, WTGBNG No. 1",reduced
same,induction efficiency,[1]; [7],improved
same,number of induced cells,[1]; [7],decreased
same,induction efficiency,"[1]; addition of PD0325901 in step 3, without addition of SHH, WTGBNG No. 1",the highest
same,concentration considered the best in step 2,[1],1 µM
same,optimum addition period of PD03 in step 3,"[1]; none, 48 hours, 96 hours tested, NG-Puro strain",48 h
same,induction efficiency,[1]; [8],further increased
same,number of induced cells,[1]; [9],decreased
same,size (embryoid bodies) at the end of step 2,"[1]; step 2: PD0325901 3, 1, 0.3, 0 μM or FGF9 20 ng/ml, day 6",improved as the amount of PD0325901 was reduced
same,NR5A1-positive cells,"human iPS cells [3]; PD0325901 not added in step 2, day 15 of induction",not observed at all
same,NR5A1-positive cells,"human iPS cells [3]; PD0325901 weak in step 2 (0.4-1.0 μM tested), day 15",did not appear
same,PD0325901 concentration with the highest differentiation induction efficiency,"human iPS cells [3]; step 2, KSR 7 v/v %, day 15",1.0 µM
"CC1=C(/C=C/C(C)=C/C=C/C(C)=C/C(=O)O)C(C)(C)CCC1 [RA, retinoic acid]",concentration of RA in step 2 at which induction efficiency for NR5A1-positive cells was particularly excellent,"[1]; 0, 0.3, 1, 3, 10 μM tested, FACS day 16",≥ 3 µM
same,concentration considered the best in step 2,[1],3 µM
CNC1CCC(N(Cc2cccc(-c3ccncc3)c2)C(=O)c2sc3ccccc3c2Cl)CC1 (stereo not shown) [SAG],replacement of SHH in step 2,"[1]; SAG 100 nM, FACS day 16",SHH can be replaced with SAG
C[C@@H](N)[C@H]1CC[C@H](C(=O)Nc2ccncc2)CC1 [Y-27632],efficiency of forming cell aggregates (embryoid bodies),"[2]; without Y-27632 in step 1, day 2 of induction, TGOT No. 25 strain",significantly low
BMP4: bone morphogenetic protein 4,expression of OSR1,"[2]; increasing the amount of BMP in step 1, CHIR99021 14 μM or more",enhanced
same,embryoid bodies (size; concern about cytotoxicity),[1],the same tendency was recognized
same,best concentration in step 2 (induction efficiency),"[1]; BMP4 0, 1, 5, 10 and SHH 0, 30, 60, 100 ng/ml tested, FACS day 16",1 ng/mL
same,concentration in step 3 that most induced NR5A1-positive cells,"[1]; BMP4 0, 1, 20, 50 and FGF9 0, 2, 10, 20 ng/ml tested, FACS day 16",1 ng/mL
same,induction efficiency,"[1]; BMP4 not added after step 2 (four-step method), FACS day 16",higher
same,number of induced cells,[1]; [7],decreased only in a case where BMP4 was added to EGF+RA (ER+B)
same,expression of OSR1,"[1]; by the amount of BMP4 added in step 1 (1, 3, 10 ng/ml), CHIR 10 μM",increase
same,concentration considered the best in step 2,[1],1 ng/mL
same,induction efficiency,[1]; [8],reduced
same,number of induced cells,[1]; [9],large
same,concentration in step 1 at which number and proportion of the positive cells were maximal,"[1]; periods 3-3-10 (days), day 16",0 ng/mL
EGF: epidermal growth factor,concentration considered the best in step 2,[1],50 ng/mL
same,necessity for induction,"[1]; no addition of EGF in step 1 and step 2, FACS day 16, NGFT No. 69",not essential
bFGF: basic fibroblast growth factor (FGF2),expression of the marker gene of posteriorization,human iPS cells [5],not recognized
same,expression of OSR1,"[1]; added in step 1: bFGF 50 ng/mL entire period, Activin A 10 ng/ml one day from day 1, FACS days 2, 4, 6",acted toward enhancing the expression of OSR1
same,NR5A1-positive cells,"[1]; addition of bFGF in step 1, periods 2-2-12 (days), day 16",no significant change
same,NR5A1-positive cell induction efficiency,"[1]; addition of bFGF in step 1, periods 3-3-10 (days), day 16",remarkable improvement
same,improvement of the induction of NR5A1-positive cells,"[1]; bFGF 50 ng/ml and Activin A 10 ng/ml (only from day 1) in step 1, days 14 and 21",not recognized
same,concentration in step 1 at which number and proportion of the positive cells were maximal,"[1]; periods 3-3-10 (days), day 16",5 ng/mL
same,states of the embryoid bodies,"human iPS cells [3]; added between day 2 and day 4 of induction, step 1 plane culture",poor (dead)
same,differentiation induction efficiency,human iPS cells [3]; bFGF not present in step 1 (versus added),higher

# From US20240174985A1, “METHOD FOR PRODUCING OVARIAN SOMATIC CELL-LIKE CELLS, AND METHOD FOR INDUCING DIFFERENTIATION OF PRIMATE PLURIPOTENT STEM CELLS INTO OVARIAN SOMATIC CELL-LIKE CELLS” (Kyoto University, priority 2021, published 2024)
